Laboratory results as given in article PMC9953224, “Pharmacokinetic Evaluation of New Drugs Using a Multi-Labelling Approach and PET Imaging: Application to a Drug Candidate with Potential Application in Neuromuscular Disorders” (Biomedicines, 2023).
Where two headings read alike, the source gives them in different places.

Tests used:
[1] = In vitro metabolism with rat liver microsomes; format: in vitro ADME; settings: NADPH, 30 min
Protocol: Labelled compounds ([^11C]AHK2.1, 2.8 MBq, 0.4 nmol; [^11C]AHK2.2, 4.7–5.1 MBq, 0.2–0.4 nmol; [^3H]AHK2, 0.25 MBq, 0.5 nmol; or non-radioactive AHK2, the latter for metabolite identification) and microsomal protein (rat Sprague Dawley microsomes, Thermo Fisher Scientific, Carlsbad, CA, USA; which are a sub-cellular fraction of hepatocytes containing enzymes responsible for the metabolism of over 90% of commercial drugs; 20 mg/mL) were pre-incubated for 5 min with gentle agitation (300 rpm) in 100 mM phosphate buffer (pH 7.4). The reaction was initiated by the addition of 10 μL freshly prepared 20 mM nicotinamide adenine dinucleotide phosphate (NADPH, Roche, Mannheim, Germany) in 100 mM phosphate buffer (pH 7.4). […] The resulting supernatants were analysed by HPLC, using an Agilent 1200 Series chromatograph equipped with a multiple wavelength UV detector (λ = 254 nm) and two radioactivity detectors, one of them equipped with a solid scintillation cell, especially designed to detect low energy β^- (Ramona, Raytest), and one of them equipped with a NaI crystal, for the detection of γ-rays (Gabi, Raytest). […] For the non-radioactive AHK2, the resulting supernatants were analysed by ultra-high-performance liquid chromatography coupled with electrospray ionization time-of-flight mass spectrometry (UHPLC-ESI-TOF-MS, Electrospray positive mode/W mode m/z range 100–1000). […]

[2] = Pharmacokinetics from metabolite-corrected arterial plasma TACs after oral administration; format: in vivo, Sprague Dawley Rats; settings: for MRT / half-life: Sprague Dawley, rat, arterial plasma; for MRT: read-out: MRT mean residence time (converted); for half-life: read-out: t1/2 terminal half-life
Protocol: Anaesthesia was induced with 5% isoflurane (IsoFlo®, Abbott Laboratories, Abbott Park, IL, USA) and maintained by 2% of isoflurane in 100% O2. During the experiment, rats were kept normothermic using a heating blanket (Homeothermic Blanket Control Unit; Bruker). The rat was positioned in supine position on an operating table and the two distal hind limbs were fixed forming an approximately 30° angle with the horizontal plane. The surgical region was scrubbed using Betadine, starting in the centre, and making a circular sweep outward. A skin incision was made in the femoral region. Soft tissue was dissected to expose the femoral neurovascular bundle, consisting of femoral vein, artery, and nerve. Fine tip forceps were placed between the artery, vein and nerve and were slowly opened to separate the vessels, exposing an approximately 1 cm length section of artery/vein. The vena profunda femoris was sutured to avoid retrograde bleeding via this vessel, and the sapheno-femoral junction was cauterized. A few millimetres from venatomy, a vascular clip was inserted in the direction of the catheter (to control the flow) and a suture was applied in the opposite direction (to avoid retrograde bleeding). The same operation was carried out both on the femoral vein and femoral artery. An appropriate syringe filled with 50 U/mL Heparin/physiologic saline solution was fixed at the terminus of the catheters and these were filled with heparinized saline solution. On the upper half of the vessel circumference, at a 45° angle, an incision was made and the catheter (fine bore polythene tubing: ID 0.58 mm, OD 0.98 mm) was inserted through the venotomy and advanced to the vascular clip. The vascular clip was then removed, and the catheter advanced distally towards the level of the inguinal ligament. The catheter was finally secured to the femoral vein/artery proximally and distally with 2 single knots using 4–0 braided silk suture. The catheters were connected to an in-house developed system composed by a peristaltic pump and gamma-radiation coincidence detector (Bioscan, B-FC-4100). The femoral artery catheter, the gamma detector, the peristaltic pump, and the femoral vein catheter were thus connected in series, to enable the extracorporeal circulation of blood (flow 150 μL/s from femoral artery to femoral vein) and continuous measurement of radioactivity in the blood (Figure 1).
The labelled compounds were administrated two different ways: (i) intravenous bolus infusion (ca. 37 MBq in 300 μL of saline solution was injected through the femoral vein catheter) and (ii) oral bolus administration. For oral administration, animals were fasted for 5 h. The radioactive dose (ca. 74 MBq in 300 μL of saline solution) was administered using flexible 20-gauge disposable flexible PTFE feeding needles (Fine Science Tools, F.S.T.) and a small animal Laryngoscope (Penn-Century, Model LS-2) for the correct visualization of the oesophagus. The study was conducted under no carrier added (NCA, dose adjusted to 1 μg/Kg) and carrier added (CA, dose adjusted to 5 mg/Kg) conditions. In all cases, data were imported in real time to an excel sheet using PLX-DAX add-on for Microsoft Excel (measured in volts per second).
Arterial blood samples (1 per animal) were withdrawn (see Figure 1) from the femoral artery catheter and introduced into a capillary (Microhaematocrit capillaries 75 × 1.55, Nahita). Samples were centrifuged at 11,000× g […] for 10 min and the haematocrit was determined. A second blood sample was withdrawn and the amount of radioactivity of a fixed volume (10 µL) was measured in an automatic gamma counter (2470 Wizard, PerkinElmer) to determine Cb (concentration of radioactivity in blood) and convert data imported with PLX-DAX (Volts per seconds) into Bq/s using a previously determined calibration curve. Values were then expressed as percentage of injected dose per gram of blood (% ID/g). […]

[3] = both groups (1 µg/Kg and 5 mg/Kg) pooled together

AUC area under the curve ([2]; 1 µg/Kg): 6.68 ± 4.35 %IDxs/mL
Cl plasma clearance ([2]; 1 µg/Kg): 4.23 ± 3.58 mL/s
Vz volume of distribution based on the terminal slope ([2]; 1 µg/Kg): 2728.14 ± 1252.35 mL
AUC area under the curve ([2]; 5 mg/Kg): 13.35 ± 5.08 %IDxs/mL
Cl plasma clearance ([2]; 5 mg/Kg): 1.57 ± 0.69 mL/s
Vz volume of distribution based on the terminal slope ([2]; 5 mg/Kg): 1624.28 ± 1299.35 mL
MRT ([2]; 1 ug/kg): 8.51 min
half-life ([2]; 1 ug/kg): 9.16 ± 3.78 min
MRT ([2]; 5 mg/Kg): 9.36 min
half-life ([2]; 5 mg/Kg): 13 ± 11.1 min
MRT [2, 3]: 9 min
half-life [2, 3]: 11.3 ± 8.44 min
AUC area under the curve [2, 3]: 10.49 ± 5.65 %IDxs/mL
Cl plasma clearance [2, 3]: 2.71 ± 2.55 mL/s
Vz volume of distribution based on the terminal slope [2, 3]: 2097.36 ± 1309.61 mL
SMILES: COc1ccc(SCc2cn(CCN(C)C)nn2)cc1 [AHK2, 1-[2-(N,N-dimethylamino)ethyl]-4-[(4-methoxyphenyl)thiomethyl]-1H-1,2,3-triazole]
main metabolic pathways [1]: oxidation of the thioether group into sulfoxide, demethylation of the CH3O-Ar residue and demethylation of –N(CH3)2
